In patent US11357779B2 (G1 Therapeutics, Inc., priority 2018, dated 2022):
Read-outs that look alike come from different tables or passages of the source.

Assay: Plasma concentration versus time of Compound I and metabolite Compound III in patients dosed QD or BID with Form B of Compound II plus fulvestrant
Format: in vivo, human
Details: human, plasma, oral; for concentration at 8 day: Day 8; for concentration at 15 day: Day 15; for concentration at 22 day: Day 22
Source text: Patients were enrolled into 1 of 2 parallel, independently operating, dose-escalation dosing cohorts with Form B of Compound II administered continuously either once daily (QD) or twice daily (BID) with food with fixed-dose fulvestrant (intramuscularly every 14 days for the first three injections and then every 28 days). Pre- or perimenopausal patients also received goserelin for the duration of study treatment. A […] agonist was started at least 28 days before the first dose of Form B, and those patients who were taking another LHRH agonist were switched to goserelin on Day 1. Patients were split into […] cohorts providing once a day (QD) dosing of 200 mg, 300 mg, 400 mg, 500 mg, or 650 mg of Form B, or twice a day (BID) dosing of 100 mg, 150 mg, or 200 mg of Form B. The second dose in BID cohorts was not administered in the evening until at least 12 hours after the initial morning dose of Form B. The dosing cohorts for Form B of Compound II are provided in Table 1.
Blood samples were collected at the following time points relative to the morning dose of Form B at Day 1 and at Day 29: pre-dose (0 hour) and 1, 2, 3, 4, 6, 8, 10, 12 (prior to the evening dose in the BID cohorts), and 24 (prior to the next day's morning dose) hours after dosing. A 5-minute time window was allowed for samples collected between the predose and 3 hours after Form B dosing. A 15-minute window was allowed for samples collected between 4 to 12 hours after Form B dosing. A 1-hour window was allowed for the sample collected 24 hours after Form B dosing. Blood samples for Compound I PK trough levels were collected pre-dose at Day 8, Day 15, and Day 22 prior to the morning administration of Compound I. Plasma concentrations of Compound I and its metabolite, Compound III, were measured using validated methods.
Analysis of plasma concentration versus time data for calculation of standard pharmacokinetic (PK) parameters following oral administration was conducted using Phoenix WinNonlin version 6.3 using actual blood sampling times.

[1] = 650 mg, Cohort 5, 650 mg QD of Form B, read-out: Trough Compound III Concentration, Max
[2] = 650 mg, Cohort 5, 650 mg QD of Form B, read-out: Trough Compound III Concentration, Mean
[3] = 650 mg, Cohort 5, 650 mg QD of Form B, read-out: Trough Compound III Concentration, Median
[4] = 650 mg, Cohort 5, 650 mg QD of Form B, read-out: Trough Compound III Concentration, Min

- concentration at 8 h (500 mg, Cohort 4, 500 mg QD of Form B, Day 29, 8.0 h, read-out: Compound III Concentration, Mean): 3.56 ng/mL
- concentration at 8 h (500 mg, Cohort 4, 500 mg QD of Form B, Day 29, 8.0 h, read-out: Compound III Concentration, Min): 3.3 ng/mL
- concentration at 10 h (500 mg, Cohort 4, 500 mg QD of Form B, Day 29, 10.0 h, read-out: Compound III Concentration, Max): 2.88 ng/mL
- concentration at 10 h (500 mg, Cohort 4, 500 mg QD of Form B, Day 29, 10.0 h, read-out: Compound III Concentration, Mean): 2.66 ng/mL
- concentration at 10 h (500 mg, Cohort 4, 500 mg QD of Form B, Day 29, 10.0 h, read-out: Compound III Concentration, Min): 2.52 ng/mL
- concentration at 12 h (500 mg, Cohort 4, 500 mg QD of Form B, Day 29, 12.0 h, read-out: Compound III Concentration, Max): 2.55 ng/mL
- concentration at 12 h (500 mg, Cohort 4, 500 mg QD of Form B, Day 29, 12.0 h, read-out: Compound III Concentration, Mean): 2.33 ng/mL
- concentration at 12 h (500 mg, Cohort 4, 500 mg QD of Form B, Day 29, 12.0 h, read-out: Compound III Concentration, Min): 2.1 ng/mL
- concentration at 24 h (500 mg, Cohort 4, 500 mg QD of Form B, Day 29, […], read-out: Compound III Concentration, Mean): 1.24 ng/mL
- concentration at 24 h (500 mg, Cohort 4, 500 mg QD of Form B, Day 29, […], read-out: Compound III Concentration, Min): 0.959 ng/mL
- concentration at 0 h (650 mg, 650 mg QD of Form B, Day 1, 0.0 h, Mean, read-out: Compound III Concentration): 0 ng/mL
- concentration at 0 h (650 mg, 650 mg QD of Form B, Day 1, 0.0 h, Median, read-out: Compound III Concentration): 0 ng/mL
- concentration at 1 h (650 mg, 650 mg QD of Form B, Day 1, 1.0 h, Mean, read-out: Compound III Concentration): 2.73 ng/mL
- concentration at 1 h (650 mg, 650 mg QD of Form B, Day 1, 1.0 h, Median, read-out: Compound III Concentration): 2.77 ng/mL
- concentration at 2 h (650 mg, 650 mg QD of Form B, Day 1, 2.0 h, Mean, read-out: Compound III Concentration): 4.01 ng/mL
- concentration at 2 h (650 mg, 650 mg QD of Form B, Day 1, 2.0 h, Median, read-out: Compound III Concentration): 3.81 ng/mL
- concentration at 3 h (650 mg, 650 mg QD of Form B, Day 1, 3.0 h, Mean, read-out: Compound III Concentration): 6.13 ng/mL
- concentration at 3 h (650 mg, 650 mg QD of Form B, Day 1, 3.0 h, Median, read-out: Compound III Concentration): 6.43 ng/mL
- concentration at 4 h (650 mg, 650 mg QD of Form B, Day 1, 4.0 h, Mean, read-out: Compound III Concentration): 8.35 ng/mL
- concentration at 4 h (650 mg, 650 mg QD of Form B, Day 1, 4.0 h, Median, read-out: Compound III Concentration): 9.22 ng/mL
- concentration at 6 h (650 mg, 650 mg QD of Form B, Day 1, 6.0 h, Mean, read-out: Compound III Concentration): 9.69 ng/mL
- concentration at 6 h (650 mg, 650 mg QD of Form B, Day 1, 6.0 h, Median, read-out: Compound III Concentration): 10 ng/mL
- concentration at 8 h (650 mg, 650 mg QD of Form B, Day 1, 8.0 h, Mean, read-out: Compound III Concentration): 10.1 ng/mL
- concentration at 8 h (650 mg, 650 mg QD of Form B, Day 1, 8.0 h, Median, read-out: Compound III Concentration): 8.66 ng/mL
- concentration at 10 h (650 mg, 650 mg QD of Form B, Day 1, 10.0 h, Mean, read-out: Compound III Concentration): 6.63 ng/mL
- concentration at 10 h (650 mg, 650 mg QD of Form B, Day 1, 10.0 h, Median, read-out: Compound III Concentration): 5.32 ng/mL
- concentration at 12 h (650 mg, 650 mg QD of Form B, Day 1, 12.0 h, Mean, read-out: Compound III Concentration): 5.12 ng/mL
- concentration at 12 h (650 mg, 650 mg QD of Form B, Day 1, 12.0 h, Median, read-out: Compound III Concentration): 4.41 ng/mL
- concentration at 24 h (650 mg, 650 mg QD of Form B, Day 1, […], Mean, read-out: Compound III Concentration): 2.17 ng/mL
- concentration at 24 h (650 mg, 650 mg QD of Form B, Day 1, […], Median, read-out: Compound III Concentration): 1.51 ng/mL
- concentration at 8 day [1]: 4.96 ng/mL
- concentration at 8 day [2]: 3.55 ng/mL
- concentration at 8 day [3]: 3.79 ng/mL
- concentration at 8 day [4]: 1.65 ng/mL
- concentration at 15 day [1]: 3.6 ng/mL
- concentration at 15 day [2]: 3.13 ng/mL
- concentration at 15 day [3]: 3.52 ng/mL
- concentration at 15 day [4]: 2.28 ng/mL
- concentration at 22 day [1]: 5.65 ng/mL
- concentration at 22 day [2]: 3.7 ng/mL
- concentration at 22 day [3]: 3.11 ng/mL
- concentration at 22 day [4]: 2.34 ng/mL
- concentration at 0 h (650 mg, Cohort 5, 650 mg QD of Form B, Day 29, 0.0 h, read-out: Compound III Concentration, Median): 2.06 ng/mL
- concentration at 0 h (650 mg, Cohort 5, 650 mg QD of Form B, Day 29, 0.0 h, read-out: Compound III Concentration, Min): 1.3 ng/mL
- concentration at 1 h (650 mg, Cohort 5, 650 mg QD of Form B, Day 29, 1.0 h, read-out: Compound III Concentration, Median): 2.49 ng/mL
- concentration at 1 h (650 mg, Cohort 5, 650 mg QD of Form B, Day 29, 1.0 h, read-out: Compound III Concentration, Min): 1.28 ng/mL
- concentration at 2 h (650 mg, Cohort 5, 650 mg QD of Form B, Day 29, 2.0 h, read-out: Compound III Concentration, Median): 3.14 ng/mL
- concentration at 2 h (650 mg, Cohort 5, 650 mg QD of Form B, Day 29, 2.0 h, read-out: Compound III Concentration, Min): 1.85 ng/mL
- concentration at 3 h (650 mg, Cohort 5, 650 mg QD of Form B, Day 29, 3.0 h, read-out: Compound III Concentration, Median): 3.89 ng/mL
- concentration at 3 h (650 mg, Cohort 5, 650 mg QD of Form B, Day 29, 3.0 h, read-out: Compound III Concentration, Min): 2.61 ng/mL
- concentration at 4 h (650 mg, Cohort 5, 650 mg QD of Form B, Day 29, 4.0 h, read-out: Compound III Concentration, Median): 4.78 ng/mL
- concentration at 4 h (650 mg, Cohort 5, 650 mg QD of Form B, Day 29, 4.0 h, read-out: Compound III Concentration, Min): 3.42 ng/mL
- concentration at 6 h (650 mg, Cohort 5, 650 mg QD of Form B, Day 29, 6.0 h, read-out: Compound III Concentration, Median): 7.57 ng/mL
- concentration at 6 h (650 mg, Cohort 5, 650 mg QD of Form B, Day 29, 6.0 h, read-out: Compound III Concentration, Min): 5.3 ng/mL
- concentration at 8 h (650 mg, Cohort 5, 650 mg QD of Form B, Day 29, 8.0 h, read-out: Compound III Concentration, Median): 8.64 ng/mL
- concentration at 8 h (650 mg, Cohort 5, 650 mg QD of Form B, Day 29, 8.0 h, read-out: Compound III Concentration, Min): 5.18 ng/mL
- concentration at 10 h (650 mg, Cohort 5, 650 mg QD of Form B, Day 29, 10.0 h, read-out: Compound III Concentration, Min): 4.64 ng/mL
- concentration at 12 h (650 mg, Cohort 5, 650 mg QD of Form B, Day 29, 12.0 h, read-out: Compound III Concentration, Min): 3.42 ng/mL
- concentration at 24 h (650 mg, Cohort 5, 650 mg QD of Form B, Day 29, […], read-out: Compound III Concentration, Median): 3.04 ng/mL
- concentration at 24 h (650 mg, Cohort 5, 650 mg QD of Form B, Day 29, […], read-out: Compound III Concentration, Min): 2.49 ng/mL
Compound: O=C1NCC2(CCCCC2)n2c1cc1cnc(Nc3ccc(N4CCNCC4)cn3)nc12 [Compound III, 2′-((5-(piperazin-1-yl)pyridin-2-yl)amino)-7′,8′-dihydro-6′H-spiro[cyclohexane-1,9′-pyrazino[1′,2′:1,5]pyrrolo[2,3-d]pyrimidin]-6′-one]
